Measurements reported in US9505821B2, “ATAP peptides, nucleic acids encoding the same and associated methods of use” (Rutgers, The State University of New Jersey, priority 2006, dated 2016).

Tests used:
[1] = system: mitochondria membrane isolated from BMK-D3 cells; assay: in vitro cytochrome c release from isolated mitochondria; type: biochemical, mouse; settings: synthetic peptide 100 μM, 1 hour at 37° C.
Procedure: Mitochondria-free cytosol was prepared as previously described (Ko et al., 2003a). Briefly, 24 hours after transfection, HEK293 cells were collected by scraping, washed twice with ice-cold PBS, suspended in […] extraction buffer (50 mM PIPES-KOH, pH 7.4, 200 mM mannitol, 70 mM sucrose, 50 mM KCl, 5 mM EGTA, 2 mM MgCl2, 1 mM dithiothreitol and protease inhibitors), and incubated on ice for 30 minutes. Cells were lysed by Dounce homogenization and homogenates were centrifuged at 100,000 g for 15 minutes at 4° C. Supernatants were harvested and 20 μg of protein was analyzed by western blotting using monoclonal anticytochrome c antibody. For in vitro analysis of cytochrome c release, heavy membranes enriched in mitochondria were isolated from BMK-D3 cells using a mitochondria fractionation kit (Active Motif) according to the instructions of the manufacturer. Isolated mitochondria were diluted to a concentration of 1 mg/ml in the extraction buffer and incubated with synthetic ATAP or mHR7 peptides (100 μM) or DMSO as control for 1 hour at 37° C. The reactions were then centrifuged at 13,000 g for 10 minutes and the resulting pellets and supernatants were analyzed by SDS-PAGE.

[2] = planar lipid bilayer reconstitution, electrophysiology
Procedure: The 29-mer ATAP peptide ([…]) (SEQ ID NO.: 36) corresponding to the C-terminus of Bfl1 and its mutant mHR7 (KFEP-KSGWMTFLQVTG-LICQMLSLLKQYC) (SEQ ID NO.: 50) were synthesized by Abgent (San Diego, Calif.) with 99% purity as measured by HPLC and mass spectrometry. The peptides were dissolved in DMSO to make a 10 mM stock. Phospholipids were purchased from Avanti Polar Lipids (Birmingham, Ala.). Electrophysiological analysis was performed as described (Lam et al., 1998; Ma et al., 1988). Lipid bilayer membranes were formed across an aperture of 200 μm diameter with a 1:1 mixture of bovine brain phosphatidylethanolamine and bovine brain phosphatidylserine dissolved in n-decane at a concentration of 50 mg/ml. The recording solutions contained: cis, 200 mM KCl and 10 mM HEPES-Tris (pH 7.4); trans, 50 mM NaCl, 10 mM HEPES-Tris (pH 7.4). 1 n1 of 10 mM peptides dissolved in DMSO were added into 900 n1 of cis solution and fused into the bilayer. Voltage manipulation and currents were measured using an Axopatch 200 A amplifier (Axon Instruments, Foster City, Calif.). Data analyses were preformed with pClamp and TIPS software.

E. coli = assay: toxicity of bacterial expression; type: cell-based; settings: data not shown
HEK293 cells [3] = assay: cell death by propidium iodide (PI) staining / exclusion after transfection; type: cell-based; settings: HEK293, 24 h after transfection
Procedure: (§1) Apoptotic cell death was monitored after transfection of expression plasmids into HEK293, HeLa, MCF-7 or BMK D3 cells. 2×10^5 cells were cultured in 35-mm wells for 24 hours in Dulbecco's modified Eagle's medium (DMEM) supplemented with 10% fetal bovine serum. Cells were transfected using the Lipofectamine 2000 reagent (Invitrogen), with 1 μg of the indicated expression plasmids and further cultured in the absence or presence of 50 μM of pan-caspase inhibitor, Q-VD-OPH (OPH, Enzyme Systems Products). For morphological assessment of apoptotic cell death, cells were plated onto LabTek II chamber slides (Nalgen Nunc International) at densities of 5×10^4 cells per well. 24 hours after transfection, cells were washed with phosphate-buffered saline (PBS) prior to fixation with 4% formaldehyde. […] Cell death was also measured by propidium iodide (PI) exclusion. […] Cells were observed and photographed with a fluorescence microscope at three different fields containing approximately 200 GFP-positive cells. GFP and PI double-positive cells were counted as dead cells. Quantitative analysis of cell viability was determined by _-galactosidase reporter assay according to the procedures as described (Chittenden et al., 1995; Wood and Newcomb, 2000). […] At 24 hours following transfection, cells were harvested and β-galactosidase activity was measured using β-Galactosidase Enzyme Assay System (Promega). […]

HEK293 cells [4] = assay: β-galactosidase reporter assay of cell viability after co-transfection; type: cell-based; settings: HEK293, 24 h after co-transfection, n=5
Procedure: as §1

Molecule: KFEP-KSGWMTFLQVTG-LICQMLSLLKQYC (KFEPKSGWMTFLEVTGLICEMLSLLKQYC; (1)..(29) K163L - ATAP; listed as Homo sapiens) [mHR7 peptide, synthetic mutant of the 29-mer ATAP peptide]
- cytochrome c release from isolated mitochondria [1]: not observed
- changes in membrane conductance ([2]; peptide 11-44 μM, n=35): did not induce any notable changes in membrane conductance

Molecule: KFEPKSGWMTFLEVTGKICEMLSLLKQYC ((1)..(29) ATAP peptide derived from residues 147-175 of Bfl-1; listed as Homo sapiens) [29-mer amphipathic tail-anchoring peptide corresponding to the C-terminus of Bfl1 (a.a. 147-175)]
- cytochrome c release from isolated mitochondria [1]: induced release of cytochrome c
- toxicity of expression in E. coli (E. coli): lysis of the cells
- toxicity of expression in E. coli (E. coli; listed as Bfl-1 TA peptide): toxic to E. coli cell growth
- reversal potential for currents ([2]; 200 mM KCl (cis) / 50 mM NaCl (trans)): ~−30 mV
- rupture of the lipid bilayer, time after addition of the peptide ([2]; peptide >22.2 μM, n>30): ≤ 30 min

B1: FLAG-Bfl-1: FLAG-tagged full-length Bfl-1 (protein, UniProt Q16548 1-175, looked up)
chain: MTDCEFGYIYRLAQDYLQCVLQIPQPGSGPSKTSRVLQNVAFSVQKEVEKNLKSCLDNVNVVSVDTARTLFNQVMEKEFEDGIINWGRIVTIFAFEGILIKKLLRQQIAPDVDTYKEISYFVAEFIMNNTGEWIRQNGGWENGFVKKFEPKSGWMTFLEVTGKICEMLSLLKQYC
modifications: full-length FLAG tag
- cell death by PI staining (HEK293 cells [3]): no toxic effect
- β-galactosidase activity (HEK293 cells [4]): 1.11±0.06 fold over control
